{"source": "the kinase profiling compilation of Christmann-Franck et al. (2016)", "assay_in_all_cases": "KINOMEscan competition binding", "conditions_in_all_cases": "compound 10.0 µM", "key": {"[1]": {"target": "CSNK2A1 (human) (UniProt P68400)"}, "[2]": {"target": "TGFBR1 (human) (UniProt P36897)", "sequence (P36897 whole entry, looked up)": "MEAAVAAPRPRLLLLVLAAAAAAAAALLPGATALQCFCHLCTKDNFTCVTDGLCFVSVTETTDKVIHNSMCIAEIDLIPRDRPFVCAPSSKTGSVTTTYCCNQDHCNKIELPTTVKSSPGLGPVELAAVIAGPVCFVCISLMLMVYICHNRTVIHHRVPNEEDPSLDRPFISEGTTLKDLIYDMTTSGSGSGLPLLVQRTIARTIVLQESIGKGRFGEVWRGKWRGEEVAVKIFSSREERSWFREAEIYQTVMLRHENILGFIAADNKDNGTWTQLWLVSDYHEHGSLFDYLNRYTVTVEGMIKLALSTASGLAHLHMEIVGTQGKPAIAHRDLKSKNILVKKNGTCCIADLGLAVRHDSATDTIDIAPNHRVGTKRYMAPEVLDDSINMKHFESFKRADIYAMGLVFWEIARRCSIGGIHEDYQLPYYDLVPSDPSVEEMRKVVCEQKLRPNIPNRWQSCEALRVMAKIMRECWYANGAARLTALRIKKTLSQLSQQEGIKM"}, "[3]": {"target": "RPS6KA1 KD2 (human) (UniProt Q15418)", "sequence (Q15418 whole entry, looked up)": "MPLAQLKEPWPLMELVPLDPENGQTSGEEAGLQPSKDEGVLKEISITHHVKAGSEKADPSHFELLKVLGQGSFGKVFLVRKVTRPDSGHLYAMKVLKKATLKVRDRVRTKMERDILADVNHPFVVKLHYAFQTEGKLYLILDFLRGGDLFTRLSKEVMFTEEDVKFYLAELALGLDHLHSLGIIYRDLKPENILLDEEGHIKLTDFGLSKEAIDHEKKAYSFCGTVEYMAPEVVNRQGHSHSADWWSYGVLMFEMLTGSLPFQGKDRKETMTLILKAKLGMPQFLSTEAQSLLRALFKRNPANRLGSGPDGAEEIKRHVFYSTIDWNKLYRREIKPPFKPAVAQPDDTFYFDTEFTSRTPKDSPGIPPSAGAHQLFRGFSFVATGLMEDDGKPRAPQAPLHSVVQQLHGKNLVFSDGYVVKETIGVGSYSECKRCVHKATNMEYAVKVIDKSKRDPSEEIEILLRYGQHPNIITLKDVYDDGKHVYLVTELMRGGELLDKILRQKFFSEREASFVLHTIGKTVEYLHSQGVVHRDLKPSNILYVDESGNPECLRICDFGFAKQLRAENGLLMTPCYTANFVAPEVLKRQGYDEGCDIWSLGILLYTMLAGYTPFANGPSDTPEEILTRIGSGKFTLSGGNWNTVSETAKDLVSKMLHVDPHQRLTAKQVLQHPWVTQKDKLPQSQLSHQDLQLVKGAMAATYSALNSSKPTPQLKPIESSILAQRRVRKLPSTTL"}, "[4]": {"target": "MAK (human) (UniProt P20794)"}, "[5]": {"target": "JAK2 JH1 catalytic (human) (UniProt O60674)"}, "[6]": {"target": "CIT (human) (UniProt O14578)"}, "[7]": {"target": "MAPK9 (human) (UniProt P45984)", "sequence (P45984 whole entry, looked up)": "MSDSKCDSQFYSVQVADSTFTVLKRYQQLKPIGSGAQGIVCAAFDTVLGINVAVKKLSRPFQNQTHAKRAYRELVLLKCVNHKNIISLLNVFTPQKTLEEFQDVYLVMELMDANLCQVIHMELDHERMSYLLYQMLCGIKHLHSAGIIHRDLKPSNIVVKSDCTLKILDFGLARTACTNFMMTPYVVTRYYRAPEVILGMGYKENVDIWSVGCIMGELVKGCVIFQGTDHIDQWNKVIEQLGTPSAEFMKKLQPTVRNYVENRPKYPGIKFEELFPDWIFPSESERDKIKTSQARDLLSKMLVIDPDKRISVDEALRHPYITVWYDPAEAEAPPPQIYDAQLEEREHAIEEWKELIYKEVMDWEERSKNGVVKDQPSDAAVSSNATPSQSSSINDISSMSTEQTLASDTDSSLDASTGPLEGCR"}, "[8]": {"target": "FGFR2 (human) (UniProt P21802)"}, "[9]": {"target": "MINK1 (human) (UniProt Q8N4C8)"}, "[10]": {"target": "STK32B (human) (UniProt Q9NY57)"}, "[11]": {"target": "MST4 (human) (UniProt Q9P289)", "sequence (Q9P289 whole entry, looked up)": "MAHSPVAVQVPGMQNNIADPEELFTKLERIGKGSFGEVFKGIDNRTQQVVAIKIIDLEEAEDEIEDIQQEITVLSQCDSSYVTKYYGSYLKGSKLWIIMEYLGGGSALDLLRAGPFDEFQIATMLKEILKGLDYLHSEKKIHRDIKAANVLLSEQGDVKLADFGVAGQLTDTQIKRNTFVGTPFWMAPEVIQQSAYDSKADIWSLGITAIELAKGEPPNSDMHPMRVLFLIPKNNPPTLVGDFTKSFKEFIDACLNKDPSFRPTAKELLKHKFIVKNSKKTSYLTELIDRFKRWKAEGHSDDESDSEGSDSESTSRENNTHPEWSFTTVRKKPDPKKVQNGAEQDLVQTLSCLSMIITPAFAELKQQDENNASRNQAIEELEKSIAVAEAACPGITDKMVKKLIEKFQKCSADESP"}, "[12]": {"target": "SGK110 (human) (UniProt P0C264)"}, "[13]": {"target": "NEK5 (human) (UniProt Q6P3R8)"}, "[14]": {"target": "STK39 (human) (UniProt Q9UEW8)"}, "[15]": {"target": "WEE2 (human) (UniProt P0C1S8)", "sequence (P0C1S8 whole entry, looked up)": "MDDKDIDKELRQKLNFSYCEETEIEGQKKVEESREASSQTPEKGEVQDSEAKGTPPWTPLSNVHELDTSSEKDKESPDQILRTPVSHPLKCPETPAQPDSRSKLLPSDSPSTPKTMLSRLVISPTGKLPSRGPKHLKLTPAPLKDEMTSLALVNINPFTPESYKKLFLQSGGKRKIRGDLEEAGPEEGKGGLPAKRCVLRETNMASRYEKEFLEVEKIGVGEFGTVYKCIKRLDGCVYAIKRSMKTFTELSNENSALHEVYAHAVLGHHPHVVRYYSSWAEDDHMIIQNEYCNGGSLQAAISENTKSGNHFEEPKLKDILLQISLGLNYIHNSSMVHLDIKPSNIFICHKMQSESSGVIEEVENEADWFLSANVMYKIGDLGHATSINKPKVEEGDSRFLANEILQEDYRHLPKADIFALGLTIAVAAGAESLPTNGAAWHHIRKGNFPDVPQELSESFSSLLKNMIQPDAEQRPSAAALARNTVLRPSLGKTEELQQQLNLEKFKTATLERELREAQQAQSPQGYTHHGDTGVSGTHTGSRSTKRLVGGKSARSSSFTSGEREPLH"}, "[16]": {"target": "ROS1 (human) (UniProt P08922)", "sequence (P08922 whole entry, looked up)": "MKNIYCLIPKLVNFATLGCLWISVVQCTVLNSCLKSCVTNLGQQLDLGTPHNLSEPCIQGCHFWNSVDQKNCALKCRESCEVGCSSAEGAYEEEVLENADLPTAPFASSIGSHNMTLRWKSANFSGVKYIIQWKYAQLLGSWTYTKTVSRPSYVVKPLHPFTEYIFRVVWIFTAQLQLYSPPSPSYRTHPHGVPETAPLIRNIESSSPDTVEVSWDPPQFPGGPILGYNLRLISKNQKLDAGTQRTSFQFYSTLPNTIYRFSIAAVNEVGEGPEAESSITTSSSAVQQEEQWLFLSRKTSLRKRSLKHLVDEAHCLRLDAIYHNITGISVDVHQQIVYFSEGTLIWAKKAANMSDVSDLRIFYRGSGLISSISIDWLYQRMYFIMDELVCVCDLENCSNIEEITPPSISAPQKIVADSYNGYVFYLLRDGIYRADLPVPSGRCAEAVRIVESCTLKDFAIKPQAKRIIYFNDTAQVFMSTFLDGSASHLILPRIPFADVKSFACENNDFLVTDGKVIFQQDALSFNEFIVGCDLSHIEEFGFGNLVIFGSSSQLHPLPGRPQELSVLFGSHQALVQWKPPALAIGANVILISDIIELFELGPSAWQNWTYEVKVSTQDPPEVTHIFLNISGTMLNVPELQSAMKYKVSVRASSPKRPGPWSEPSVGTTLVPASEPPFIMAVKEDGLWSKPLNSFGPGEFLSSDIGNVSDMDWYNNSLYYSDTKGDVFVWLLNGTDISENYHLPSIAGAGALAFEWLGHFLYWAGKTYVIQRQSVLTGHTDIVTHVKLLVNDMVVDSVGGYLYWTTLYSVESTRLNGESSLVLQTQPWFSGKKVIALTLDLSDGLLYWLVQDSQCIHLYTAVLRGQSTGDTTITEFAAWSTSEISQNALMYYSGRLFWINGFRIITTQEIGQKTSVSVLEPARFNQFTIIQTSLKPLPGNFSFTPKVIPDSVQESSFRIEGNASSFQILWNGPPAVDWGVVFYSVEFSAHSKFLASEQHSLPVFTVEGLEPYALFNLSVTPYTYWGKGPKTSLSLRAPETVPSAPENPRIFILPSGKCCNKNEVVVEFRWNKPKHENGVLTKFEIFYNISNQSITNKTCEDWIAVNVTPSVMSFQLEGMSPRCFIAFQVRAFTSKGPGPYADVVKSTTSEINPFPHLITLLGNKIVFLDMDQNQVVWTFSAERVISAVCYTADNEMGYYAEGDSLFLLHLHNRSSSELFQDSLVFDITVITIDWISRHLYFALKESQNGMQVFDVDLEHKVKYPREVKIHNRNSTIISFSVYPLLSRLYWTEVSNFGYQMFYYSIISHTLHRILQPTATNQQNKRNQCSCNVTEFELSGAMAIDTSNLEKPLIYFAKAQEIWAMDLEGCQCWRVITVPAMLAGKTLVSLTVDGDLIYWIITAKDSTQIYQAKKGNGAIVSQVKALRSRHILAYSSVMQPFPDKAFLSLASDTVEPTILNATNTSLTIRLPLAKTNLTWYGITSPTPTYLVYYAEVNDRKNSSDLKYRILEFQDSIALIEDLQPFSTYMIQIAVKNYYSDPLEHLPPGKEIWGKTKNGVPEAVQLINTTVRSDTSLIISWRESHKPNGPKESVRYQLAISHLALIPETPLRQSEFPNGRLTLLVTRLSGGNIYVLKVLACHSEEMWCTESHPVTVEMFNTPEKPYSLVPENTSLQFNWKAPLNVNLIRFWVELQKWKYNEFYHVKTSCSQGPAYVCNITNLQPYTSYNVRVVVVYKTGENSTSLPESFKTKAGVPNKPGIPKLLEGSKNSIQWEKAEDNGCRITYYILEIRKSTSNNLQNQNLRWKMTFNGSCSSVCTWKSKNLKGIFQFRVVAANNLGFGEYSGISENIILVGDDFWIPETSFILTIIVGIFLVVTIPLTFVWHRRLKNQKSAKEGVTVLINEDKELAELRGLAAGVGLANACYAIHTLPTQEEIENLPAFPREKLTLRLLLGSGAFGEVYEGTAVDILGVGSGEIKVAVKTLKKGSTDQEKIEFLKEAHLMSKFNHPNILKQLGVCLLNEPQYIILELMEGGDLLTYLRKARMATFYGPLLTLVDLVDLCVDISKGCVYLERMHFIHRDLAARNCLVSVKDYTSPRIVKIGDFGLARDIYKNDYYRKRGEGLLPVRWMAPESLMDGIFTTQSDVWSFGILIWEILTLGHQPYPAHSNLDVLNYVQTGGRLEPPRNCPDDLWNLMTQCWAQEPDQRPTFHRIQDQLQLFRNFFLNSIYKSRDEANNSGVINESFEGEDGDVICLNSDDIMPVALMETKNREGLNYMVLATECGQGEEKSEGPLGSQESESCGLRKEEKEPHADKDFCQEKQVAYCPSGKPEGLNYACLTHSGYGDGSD"}, "[17]": {"target": "PHKG1 (human) (UniProt Q16816)"}, "[18]": {"target": "NUAK1 (human) (UniProt O60285)"}, "[19]": {"target": "ULK3 (human) (UniProt Q6PHR2)"}, "[20]": {"target": "MKNK1 (human) (UniProt Q9BUB5)"}, "[21]": {"target": "ULK1 (human) (UniProt O75385)"}, "[22]": {"target": "BMPR1B (human) (UniProt O00238)"}, "[23]": {"test_system": "KIT (human), P10721 [V559D/V654A]"}, "[24]": {"target": "MAP3K9 (human) (UniProt P80192)"}, "[25]": {"target": "WEE1 (human) (UniProt P30291)"}, "[26]": {"target": "MAPK13 (human) (UniProt O15264)"}, "[27]": {"target": "CDK19 (human) (UniProt Q9BWU1)"}, "[28]": {"test_system": "EGFR (human), P00533 [747-751 del / S ins]"}, "[29]": {"target": "CDKL2 (human) (UniProt Q92772)"}, "[30]": {"target": "TNK1 (human) (UniProt Q13470)"}, "[31]": {"target": "SLK (human) (UniProt Q9H2G2)"}, "[32]": {"target": "TSSK1B (human) (UniProt Q9BXA7)"}, "[33]": {"target": "DYRK1B (human) (UniProt Q9Y463)"}, "[34]": {"target": "KIT (human) (UniProt P10721)"}, "[35]": {"target": "EPHA2 (human) (UniProt P29317)"}, "[36]": {"target": "MARK3 (human) (UniProt P27448)"}, "[37]": {"target": "MAP2K3 (human) (UniProt P46734)"}, "[38]": {"target": "PDPK1 (human) (UniProt O15530)"}, "[39]": {"target": "BRAF (human) (UniProt P15056)"}, "[40]": {"target": "CSNK1A1L (human) (UniProt Q8N752)"}}}
{"smiles": "CCN1CCN(C(=O)Cc2ccc(Nc3ncc(F)c(Nc4ccc(C(=O)Nc5ccccc5Cl)cc4)n3)cc2)CC1", "values": [{"measurement": "kinase still bound, per cent of control", "setting": "[1]", "value": 18, "unit": "%"}, {"measurement": "kinase still bound, per cent of control", "setting": "[2]", "value": 57, "unit": "%"}, {"measurement": "kinase still bound, per cent of control", "setting": "[3]", "value": 45, "unit": "%"}, {"measurement": "kinase still bound, per cent of control", "setting": "[4]", "value": 100, "unit": "%"}, {"measurement": "kinase still bound, per cent of control", "setting": "[5]", "value": 76, "unit": "%"}, {"measurement": "kinase still bound, per cent of control", "setting": "[6]", "value": 27, "unit": "%"}, {"measurement": "kinase still bound, per cent of control", "setting": "[7]", "value": 0.75, "unit": "%"}, {"measurement": "kinase still bound, per cent of control", "setting": "[8]", "value": 25, "unit": "%"}, {"measurement": "kinase still bound, per cent of control", "setting": "[9]", "value": 57, "unit": "%"}, {"measurement": "kinase still bound, per cent of control", "setting": "[10]", "value": 100, "unit": "%"}, {"measurement": "kinase still bound, per cent of control", "setting": "[11]", "value": 43, "unit": "%"}, {"measurement": "kinase still bound, per cent of control", "setting": "[12]", "value": 40, "unit": "%"}, {"measurement": "kinase still bound, per cent of control", "setting": "[13]", "value": 7.9, "unit": "%"}, {"measurement": "kinase still bound, per cent of control", "setting": "[14]", "value": 100, "unit": "%"}, {"measurement": "kinase still bound, per cent of control", "setting": "[15]", "value": 12, "unit": "%"}, {"measurement": "kinase still bound, per cent of control", "setting": "[16]", "value": 34, "unit": "%"}, {"measurement": "kinase still bound, per cent of control", "setting": "[17]", "value": 82, "unit": "%"}, {"measurement": "kinase still bound, per cent of control", "setting": "[18]", "value": 18, "unit": "%"}, {"measurement": "kinase still bound, per cent of control", "setting": "[19]", "value": 1.5, "unit": "%"}, {"measurement": "kinase still bound, per cent of control", "setting": "[20]", "value": 100, "unit": "%"}, {"measurement": "kinase still bound, per cent of control", "setting": "[21]", "value": 28, "unit": "%"}, {"measurement": "kinase still bound, per cent of control", "setting": "[22]", "value": 22, "unit": "%"}, {"measurement": "kinase still bound, per cent of control", "setting": "[23]", "value": 84, "unit": "%"}, {"measurement": "kinase still bound, per cent of control", "setting": "[24]", "value": 17, "unit": "%"}, {"measurement": "kinase still bound, per cent of control", "setting": "[25]", "value": 31, "unit": "%"}, {"measurement": "kinase still bound, per cent of control", "setting": "[26]", "value": 100, "unit": "%"}, {"measurement": "kinase still bound, per cent of control", "setting": "[27]", "value": 76, "unit": "%"}, {"measurement": "kinase still bound, per cent of control", "setting": "[28]", "value": 47, "unit": "%"}, {"measurement": "kinase still bound, per cent of control", "setting": "[29]", "value": 24, "unit": "%"}, {"measurement": "kinase still bound, per cent of control", "setting": "[30]", "value": 1.3, "unit": "%"}, {"measurement": "kinase still bound, per cent of control", "setting": "[31]", "value": 0.2, "unit": "%"}, {"measurement": "kinase still bound, per cent of control", "setting": "[32]", "value": 100, "unit": "%"}, {"measurement": "kinase still bound, per cent of control", "setting": "[33]", "value": 46, "unit": "%"}, {"measurement": "kinase still bound, per cent of control", "setting": "[34]", "value": 1, "unit": "%"}, {"measurement": "kinase still bound, per cent of control", "setting": "[35]", "value": 51, "unit": "%"}, {"measurement": "kinase still bound, per cent of control", "setting": "[36]", "value": 80, "unit": "%"}, {"measurement": "kinase still bound, per cent of control", "setting": "[37]", "value": 57, "unit": "%"}, {"measurement": "kinase still bound, per cent of control", "setting": "[38]", "value": 96, "unit": "%"}, {"measurement": "kinase still bound, per cent of control", "setting": "[39]", "value": 70, "unit": "%"}, {"measurement": "kinase still bound, per cent of control", "setting": "[40]", "value": 100, "unit": "%"}]}
